Test results taken from ChEMBL document CHEMBL3045953, “Pyrazolo[3,4-d]pyrimidine analogues: synthesis, characterization and their in vitro antiamoebic activity” (Med Chem Res, 2013).

Tested on: MCF7
Test: Cytotoxicity against Homo sapiens (human) MCF-7 cells assessed as decrease in number of viable cells after 48 hr by MTT assay
Assay type: ADME, cell-based
Conditions: MCF7, 48 h

SMILES	IC50 [µM]
Cc1ccc(S(=O)(=O)n2nc(-c3ccccc3)c3c(N)ncnc32)cc1	> 250
CC(=O)Nc1ccc(S(=O)(=O)n2nc(-c3ccccc3)c3c(N)ncnc32)cc1	> 250
Cc1ncc([N+](=O)[O-])n1CCO [METRONIDAZOLE]	> 250

Tested on: Entamoeba histolytica
Test: Antiamoebic activity against Entamoeba histolytica HM-1:IMSS trophozoite assessed as growth inhibition after 72 hr by microdilution method
Assay type: functional, organism-based
Conditions: not given

SMILES	IC50 [µM]
Cc1ccc(S(=O)(=O)n2nc(-c3ccccc3)c3c(N)ncnc32)cc1	0.57
Nc1ncnc2c1c(-c1ccccc1)nn2S(=O)(=O)c1ccc([N+](=O)[O-])cc1	2.52
CC(=O)Nc1ccc(S(=O)(=O)n2nc(-c3ccccc3)c3c(N)ncnc32)cc1	0.68
Nc1ncnc2c1c(-c1ccccc1)nn2S(=O)(=O)c1ccc(Cl)cc1	3.23
Nc1ncnc2c1c(-c1ccccc1)nn2S(=O)(=O)c1cc(Cl)ccc1Cl	2.37
Nc1ncnc2c1c(-c1ccccc1)nn2S(=O)(=O)c1ccc2ccccc2c1	3.11
Nc1ncnc2c1c(-c1ccccc1)nn2S(=O)(=O)c1ccccc1	4.24
CS(=O)(=O)n1nc(-c2ccccc2)c2c(N)ncnc21	5.15
Cc1ccc(-c2cc(-c3cccc(-c4cc(-c5ccc(C)cc5)nc(N5CCCC5)n4)c3)nc(N3CCCC3)n2)cc1	0.16
